{
  "source": "patent US20110231103A1",
  "about": "“METHODS FOR DETERMINING MOLECULAR PHARMACOLOGY USING LABEL-FREE INTEGRATIVE PHARMACOLOGY” (priority 2010, published 2011)",
  "key": {"[1]": {"system": "15 marker/4 cell line panel (A549, A431, HT29, HepG2 cells)", "experiment": "Biosensor modulation indices against a 15 marker/4 cell line panel, Hierarchical Euclidean cluster analysis", "type": "cell-based", "conditions": "15 markers at EC100 in A549, A431, HT29, HepG2 cells; library of ~2000 compounds", "description": "(§1) Cells were typically grown using ˜1 to 2×10^4 cells per well at passage 3 to 15 suspended in 50 μl of the corresponding culture medium in the biosensor microplate, and were cultured at 37° C. under air/5% CO2 for ˜1 day. Except for A431 cells which underwent one day (at least 14 hours) culture followed by one day (at least 14 hours) starvation in serum free medium, all other cells were directly assayed without starvation. The confluency for all cells at the time of assays was ˜95% to 100%.\n(§2) For biosensor cellular assays, molecule solutions were made by diluting the stored concentrated solutions with the HBSS (1× Hanks balanced salt solution, plus 20 mM Hepes, pH 7.1), and transferred into a 384well polypropylene molecule storage plate to prepare a molecule source plate. Both molecule and marker source plates were made separately when a two-step assay was performed. In parallel, the cells were washed twice with the HBSS and maintained in 30 μl of the HBSS to prepare a cell assay plate. Both the cell assay plate and the molecule and marker source plate(s) were then incubated in the hotel of the reader system. After ˜1 hr of incubation the baseline wavelengths of all biosensors in the cell assay microplate were recorded and normalized to zero. Afterwards, a 2 to 10 minute continuous recording was carried out to establish a baseline, and to ensure that the cells reached a steady state. Cellular responses were then triggered by pipetting 10 μl of the marker solutions into the cell assay plate using the on-board liquid handler.\nTo study the influence of molecules on a marker-induced response, a second stimulation with the marker at a fixed dose (typically at EC80 or EC 100) was applied. The resonant wavelengths of all biosensors in the microplate were normalized again to establish a second baseline, right before the second stimulation. The two stimulations were usually separated by ˜1 hr.\nTo further explore the potential of cluster analysis for label-free integrative pharmacology, a library of ˜2000 compounds were subject to label-free integrative pharmacology analysis against a 15 marker/4 cell line panel. The cell/marker panel consists of the A549 cell (the mitochondria KATP opener pinacidil, the TLR3 agonist poly(I:C), the protein kinase C activator PMA, the adenylate cyclase activator forskolin, the PAR2 agonist SLIGKV, and the histamine H1 receptor agonist histamine), A431 cells (the β2AR agonist epinephrine, the EGFR agonist EGF, the GPR109A agonist nicotinic acid, and the histamine H1 receptor agonist histamine), HT29 cells (the EGFR/HER2 agonist EGF, the neurotensin receptor NTS1/NTS3 agonist neurotensin, the IGF1 receptor IGF1, and the hERG activator mallotoxin), and the HepG2 cell (the TL9 agonist ODN2006). All molecules in the library were screened in four cell lines to produce a library of biosensor primary indices. In addition, all molecules in the library were also screened in the four cell lines against each respective marker at EC100 to produce a library of biosensor modulation indices. The modulation indices were generated by normalizing the marker DMR signal in the presence of a molecule to the marker DMR in the absence of a molecule. For each marker, one or two specific DMR events were used for normalization. For A549 cells, it is pinacidil (the N-DMR at 30 min; pinacidil), Poly(I:C) (the P-DMR at 50 min, poly(I:C)), PMA (the P-DMR at 50 min, PMA), SLIGKV (the P-DMR at 20 min, SLIGKV), forskolin (the P-DMR at 50 min, Forskolin), Histamine (the P-DMR at 10 min, His1; the P-DMR at 30 min, His2) (the bolded name was indicated in FIG. 6, the same is for the below). For A431 cells, it is epinephrine (the P-DMR at 50 min, Epi), nicotinic acid (the N-DMR at 3 min, NA), EGF (the P-DMR at 5 min, EGF1; the N-DMR at 40 min, EGF2), and histamine (the P-DMR at 3 min, His3)."}, "A431 cells": {"system": "A431 cells", "experiment": "DMR primary profiles of known GPCR agonists in A431 cells (receptor panning, cluster analysis)", "type": "cell-based, human", "conditions": "each agonist at 10 micromolar, max-min of 40 picometer cutoff", "description": "as §1\nAn Epic® beta version wavelength interrogation system (Corning Inc., Corning, N.Y.) was used for whole cell sensing. This system consists of a temperature-control unit, an optical detection unit, and an on-board liquid handling unit with robotics. The detection unit is centered on integrated fiber optics, and enables kinetic measures of cellular responses with a time interval of ˜15 sec.\nas §2\nAll studies were carried out at a controlled temperature (28° C.). At least two independent sets of experiments, each with at least three replicates, were performed. […] A typical DMR signal of cells, as measured using Epic system, is a real time kinetic response which consists a baseline pre-stimulation (often normalized to zero), and a cellular response post stimulation.\nTo pan endogenous G protein-coupled receptors (GPCRs) that are functional in label-free biosensor cellular assays, a library of known GPCR agonists was made. A431 cells were grown to monolayer on the Epic® 384well biosensor cell culture compatible microplates and subject to overnight starvation. After replacing the cell medium with 1×HBSS buffer and reaching equilibrium within the Epic® system, the cells were stimulated with known GPCR agonists, each at 10 micromolar. The known adenylate cyclase activator forskolin was also included as a positive control for the cAMP-PKA pathway.\nPattern recognition and pattern matching can be used to visualize their relations. However, when the numbers of molecule biosensor primary profiles increase dramatically, it becomes more difficult to use conventional pattern recognition methods, such as supervised learning, to study the relations of the molecule primary indices. Clustering analysis has been widely and successfully used in gene expression and protein network analysis which often deals with large datasets. Thus, clustering analysis and its parameters were identified herein to categorize the molecule primary indices. Both Hierarchical and k-Means clustering methods were examined. […] Here a max-min of 40 picometer was used as a cutoff to filter the original data. This heat map was generated using the real responses of each GPCR agonist at a 1-min time interval post stimulation."}, "β2-AR": {"target": "T1, β2-AR (Homo sapiens, UniProt P07550)", "T1 construct": "All of these receptors were endogenously expressed in A431 cells, as confirmed by quantitative RT-PCR; endogenous in cells; host or cells: quiescent (serum-starved) A431 cells", "T1 sequence (P07550 whole entry)": "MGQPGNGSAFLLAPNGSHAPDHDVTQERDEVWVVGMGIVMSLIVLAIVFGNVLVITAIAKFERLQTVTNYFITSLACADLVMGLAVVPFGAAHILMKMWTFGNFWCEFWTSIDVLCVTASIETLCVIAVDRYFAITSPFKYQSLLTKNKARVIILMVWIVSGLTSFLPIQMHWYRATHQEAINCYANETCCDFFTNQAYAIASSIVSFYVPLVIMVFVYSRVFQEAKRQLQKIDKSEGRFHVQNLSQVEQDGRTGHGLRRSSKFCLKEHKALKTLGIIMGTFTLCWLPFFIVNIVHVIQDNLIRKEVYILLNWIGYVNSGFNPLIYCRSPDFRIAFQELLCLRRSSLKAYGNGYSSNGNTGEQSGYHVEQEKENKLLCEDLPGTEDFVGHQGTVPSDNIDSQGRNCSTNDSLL", "experiment": "DMR assays of a panel of β2-AR ligands in quiescent A431 cells, multi-parameter and cluster analysis", "type": "cell-based", "conditions": "for heat map classification of β2-AR agonist pharmacology based on DMR parameters: DMR parameters normalized to the epinephrine response; for saturating concentration for the DMR signal: FIG. 7", "description": "as §1, §2\nLabel-free receptor assays allow a greater array of changes in the receptor to be detected. […] The heat map was generated using the Euclidean hierarchical cluster analysis, after all DMR parameters were normalized to the epinephrine response."}},
  "data": [
    {"molecule": "CN1CCC(=C2c3ccccc3CC(=O)c3sccc32)CC1", "note": "[ketotifen]", "values": [
      {"measurement": "node cluster by biosensor modulation index (similarity to known anti-histamines)", "setting": "[1]", "value": "specific node cluster that consists of 8 compounds"}
    ]},
    {"molecule": "O=c1ccn([C@@H]2O[C@H](COP(=O)(O)OP(=O)(O)OP(=O)(O)O)[C@@H](O)[C@H]2O)c(=O)[nH]1", "note": "[UTP]", "values": [
      {"measurement": "cluster of the agonist-induced primary DMR signal (two dimensional Hierarchical clustering, heat map)", "setting": "A431 cells", "value": "belong to the same cluster"}
    ]},
    {"molecule": "CN(C)CCCN1c2ccccc2Sc2ccc(Cl)cc21", "note": "[Chlorpromazine]", "values": [
      {"measurement": "node cluster by biosensor modulation index (similarity to known anti-histamines)", "setting": "[1]", "value": "specific node cluster that consists of 8 compounds"}
    ]},
    {"molecule": "CNC[C@H](O)c1ccc(O)c(O)c1", "note": "[epinephrine]", "values": [
      {"measurement": "amplitudes of the DMR signal", "setting": "β2-AR", "value": "maximum amplitudes"},
      {"measurement": "kinetics for the P-DMR event", "setting": "β2-AR", "value": "slow kinetics"},
      {"measurement": "transition time of the DMR signal", "setting": "β2-AR", "value": "fast transition time"},
      {"measurement": "heat map classification of β2-AR agonist pharmacology based on DMR parameters", "setting": "β2-AR", "value": "full agonists and strong partial agonists"},
      {"measurement": "saturating concentration for the DMR signal", "setting": "β2-AR", "value": 0.008, "unit": "µM"}
    ]},
    {"molecule": "NC[C@H](O)c1ccc(O)c(O)c1", "note": "[norepinephrine]", "values": [
      {"measurement": "heat map classification of β2-AR agonist pharmacology based on DMR parameters", "setting": "β2-AR", "value": "full agonists and strong partial agonists"},
      {"measurement": "saturating concentration for the DMR signal", "setting": "β2-AR", "value": 0.1, "unit": "µM"}
    ]},
    {"molecule": "Oc1ccccc1O", "note": "[catechol]", "values": [
      {"measurement": "amplitudes of the DMR signal", "setting": "β2-AR", "value": "smaller amplitudes"},
      {"measurement": "kinetics for the P-DMR event", "setting": "β2-AR", "value": "faster kinetics"},
      {"measurement": "transition time of the DMR signal", "setting": "β2-AR", "value": "slightly slower transition time"},
      {"measurement": "heat map classification of β2-AR agonist pharmacology based on DMR parameters", "setting": "β2-AR", "value": "between the second and third group"},
      {"measurement": "saturating concentration for the DMR signal", "setting": "β2-AR", "value": 500, "unit": "µM"}
    ]},
    {"molecule": "Nc1ncnc2c1ncn2[C@@H]1O[C@H](COP(=O)(O)OP(=O)(O)OP(=O)(O)O)[C@@H](O)[C@H]1O", "note": "[ATP]", "values": [
      {"measurement": "cluster of the agonist-induced primary DMR signal (two dimensional Hierarchical clustering, heat map)", "setting": "A431 cells", "value": "belong to the same cluster"}
    ]},
    {"molecule": "Fc1ccc(C(c2ccc(F)cc2)N2CCN(C/C=C/c3ccccc3)CC2)cc1", "note": "[flunarizine]", "values": [
      {"measurement": "node cluster by biosensor modulation index (similarity to known anti-histamines)", "setting": "[1]", "value": "specific node cluster that consists of 8 compounds"}
    ]},
    {"molecule": "NCCc1ccc(O)c(O)c1", "note": "[dopamine]", "values": [
      {"measurement": "heat map classification of β2-AR agonist pharmacology based on DMR parameters", "setting": "β2-AR", "value": "partial agonists"},
      {"measurement": "saturating concentration for the DMR signal", "setting": "β2-AR", "value": 32, "unit": "µM"}
    ]},
    {"molecule": "C[C@@H]1CN([C@H]2CC[C@](C#N)(c3ccc(F)cc3)CC2)CC[C@]1(C(=O)O)c1ccccc1", "note": "[levocabastine]", "values": [
      {"measurement": "node cluster by biosensor modulation index (similarity to known anti-histamines)", "setting": "[1]", "value": "specific node cluster that consists of 8 compounds"}
    ]},
    {"molecule": "Cc1nc2n(c(=O)c1CCN1CCC(c3noc4cc(F)ccc34)CC1)CCCC2", "note": "[risperidone]", "values": [
      {"measurement": "node cluster by biosensor modulation index (similarity to known anti-histamines)", "setting": "[1]", "value": "specific node cluster that consists of 8 compounds"}
    ]},
    {"molecule": "OC[C@H]1O[C@@H](n2cnc3c(NC4CCCC4)nc(Cl)nc32)[C@H](O)[C@@H]1O", "note": "[CCPA]", "values": [
      {"measurement": "cluster of the agonist-induced primary DMR signal (two dimensional Hierarchical clustering, heat map)", "setting": "A431 cells", "value": "belong to the same cluster"}
    ]},
    {"molecule": "CCNC(=O)[C@H]1O[C@@H](n2cnc3c(N)nc(NCCc4ccc(CCC(=O)O)cc4)nc32)[C@H](O)[C@@H]1O", "note": "[CGS21680]", "values": [
      {"measurement": "cluster of the agonist-induced primary DMR signal (two dimensional Hierarchical clustering, heat map)", "setting": "A431 cells", "value": "belong to the same cluster"}
    ]},
    {"molecule": "CC(C)NCC(O)COc1cccc2[nH]ccc12", "note": "(centres unmarked) [pindolol]", "values": [
      {"measurement": "heat map classification of β2-AR agonist pharmacology based on DMR parameters", "setting": "β2-AR", "value": "beta-blockers with weak partial agonism activity"}
    ]},
    {"molecule": "Nc1ncnc2c1ncn2[C@@H]1O[C@H](CO)[C@@H](O)[C@H]1O", "note": "[adenosine]", "values": [
      {"measurement": "cluster of the agonist-induced primary DMR signal (two dimensional Hierarchical clustering, heat map)", "setting": "A431 cells", "value": "belong to the same cluster"}
    ]},
    {"molecule": "O=c1cc(N2CCNCC2)oc2c(-c3ccccc3)cccc12", "note": "[LY303511]", "values": [
      {"measurement": "node cluster by biosensor modulation index (similarity to known anti-histamines)", "setting": "[1]", "value": "can also be a histamine H1R or a H1R pathway antagonist"}
    ]},
    {"molecule": "CNC(=O)[C@H]1O[C@@H](n2cnc3c(NCc4cccc(I)c4)ncnc32)[C@H](O)[C@@H]1O", "note": "[IB-MECA]", "values": [
      {"measurement": "cluster of the agonist-induced primary DMR signal (two dimensional Hierarchical clustering, heat map)", "setting": "A431 cells", "value": "belong to the same cluster"}
    ]},
    {"molecule": "O=C(NCCNCC(O)COc1ccc(O)cc1)N1CCOCC1", "note": "(centres unmarked) [xamoterol]", "values": [
      {"measurement": "heat map classification of β2-AR agonist pharmacology based on DMR parameters", "setting": "β2-AR", "value": "between the second and third group"}
    ]},
    {"molecule": "CNCC(O)c1ccccc1", "note": "(centres unmarked) [halostachine]", "values": [
      {"measurement": "amplitudes of the DMR signal", "setting": "β2-AR", "value": "smaller amplitudes"},
      {"measurement": "kinetics for the P-DMR event", "setting": "β2-AR", "value": "faster kinetics"},
      {"measurement": "transition time of the DMR signal", "setting": "β2-AR", "value": "slightly slower transition time"},
      {"measurement": "heat map classification of β2-AR agonist pharmacology based on DMR parameters", "setting": "β2-AR", "value": "partial agonists"}
    ]}
  ]
}
